Like-named read-outs stand apart in the source and are kept apart here.
Key:
[1] = cited from earlier work
[2] = system: L-type calcium channel current (ICa,L); assay: Ratio of ICa,L recovery time constant (whole-cell voltage clamp, double-pulse protocol) to endocardial APD90; format: cell-based; conditions: 30 μM; control ratio 0.448; rabbit
Protocol: Single rabbit ventricular myocytes were isolated using the enzymatic digestion method as described in Rials et al., Circulation 1997; 96:1330-1336. The rabbit heart was initially perfused with 500 ml Ca^2+-free solution (in mM: NaCl 125, KCl 3.5, KH2PO4 1.5, MgCl2 1, NaHCO3 20, glucose 10) gassed with 95% O2-5% CO2 at 37° C. at a rate of 30 ml/min with a peristaltic pump. The heart was then perfused with 80 ml enzyme solution (48 mg collagenase (type II), 12 mg hyaluronidase, 80 mg BSA, and 300 mg taurine to the Ca^2+-free solution). The enzyme solution passed through the heart a single time before 40 ml, and recirculation after 40 ml. […]
ICa,L was recorded in rabbit single ventricular myocytes at 35.7±0.1° C. using the whole-cell voltage-clamp technique as described by Linz and Meyer, Pflugers Arch. […]
The action potentials were first recorded from the endocardium of the rabbit left ventricular wedge preparation at a basic cycle length of 2000 ms before and after exposure to a test compound. […]
The ratio of ICa,L recovery time constant to endocardial APD90 under control and after exposure to one of the test compounds described above was determined as follows: the ratio equals τ(ms)/APD90 (ms). The relative TdP risk score was then calculated based on the change in the QT interval and the ratio according to the criteria listed in Table 1. […]

[3] = system: rabbit left ventricular wedge preparations and single rabbit ventricular myocytes
Purkinje fiber = conditions: cited from earlier work
[4] = experimental data; cited from earlier work
[5] = system: rabbit left ventricular wedge preparations; assay: Rabbit left ventricular wedge preparation: endocardial APD90, EAD and TdP
Protocol: Female rabbits weighting 2.5-3 kg were anticoagulated with heparin and anesthetized with pentobarbital (30-35 mg/kg, i.v.). The chest was opened via a left thoracotomy, and the heart was excised and placed in a cardioplegic solution consisting of cold (4° C.) normal Tyrode's solution. Transmural wedges with dimensions of approximately 1.5 cm wide and 2-3 cm long were dissected from the left ventricle. The wedge tissue was cannulated via the circumflex or left main artery and perfused with cardioplegic solution. The preparation was then placed in a small tissue bath and arterially perfused with Tyrode's solution containing 4 mM K^+ buffered with 95% O2 and 5% CO2 (T: 35.7±0.1° C., perfusion pressure: 35-45 mmHg). The ventricular wedge was allowed to equilibrate in the tissue bath until electrically stable, approximately one hour. The preparations were stimulated at basic cycle lengths (BCL) of 1000 and 2000 ms using bipolar silver electrodes insulated except at the tips and applied to the endocardial surface.
A transmural ECG signal was recorded in all experiments using extracellular silver/silver chloride electrodes placed in the Tyrode's solution bathing the preparation. Electrodes were placed 1.0 to 1.5 cm from the epicardial and endocardial surfaces, along the same vector as the transmembrane recordings (Epi: “+” pole). The QT interval was defined as the time from the onset of the QRS to the point at which the final downslope of the T wave crosses the isoelectric line. Transmembrane action potentials were recorded simultaneously from epicardial and endocardial sites of the rabbit left ventricular wedge preparations. The action potential duration was measured at 90% repolarization (APD90).

SMILES | Maximal TdP Score ([3]; 20 min) | maximal TdP score in the testing concentration range ([3]; 20 min) | further results
CCCCc1oc2ccccc2c1C(=O)c1cc(I)c(OCCN(CC)CC)c(I)c1 [amiodarone] |  |  | TdP risk in humans [1]: rarely causes TdP
CC(C)NCC(O)c1ccc(NS(C)(=O)=O)cc1 (stereo not shown) [sotalol] | 10.0 ± 0.0 | 10.00±0.00 | ratio of ICa,L recovery time constant (τ) to endocardial APD90 [2]: 0.325
COc1c(N2C[C@@H]3CCCN[C@@H]3C2)c(F)cc2c(=O)c(C(=O)O)cn(C3CC3)c12 [moxifloxacin] | 4.0 ± 0.0 | 4.00±0.00 | 
CC(C)COCC(CN(Cc1ccccc1)c1ccccc1)N1CCCC1 (stereo not shown) [bepridil] | 7.5 ± 0.3 | 7.50±0.26 | increase in the action potential duration of the Purkinje fiber (Purkinje fiber): have not been shown to produce a significant increase; TdP risk in humans [1]: known to cause TdP in humans; increase in the QT interval [4]: fails to produce a significant increase
O=C(NCC1CCCCN1)c1cc(OCC(F)(F)F)ccc1OCC(F)(F)F (stereo not shown) [flecainide] | 1.3 ± 0.2 | 1.25±0.22 | 
CN(C)CCCC1(c2ccc(F)cc2)OCc2cc(C#N)ccc21 (stereo not shown) [citalopram] | 1.3 ± 0.2 | 1.25±0.22 | 
C=C[C@H]1C[N@@]2CC[C@H]1C[C@@H]2[C@@H](O)c1ccnc2ccc(OC)cc12 [quinidine] | 11.8 ± 0.2 | 11.75±0.22 | 
O=C(CCCN1CCC(O)(c2ccc(Cl)cc2)CC1)c1ccc(F)cc1 [haloperidol] | 4.2 ± 0.6 | 4.20±0.58 | 
CN(CCOc1ccc(NS(C)(=O)=O)cc1)CCc1ccc(NS(C)(=O)=O)cc1 [dofetilide] |  |  | increase in rabbit endocardial APD90 ([5]; dofetilide 0.003 μM vs control, n=8): 76%; development of EAD (preparations) ([5]; dofetilide 0.003 μM, rabbit left ventricular wedge preparations): seven of eight; TdP (rabbits) ([5]; dofetilide 0.01 μM): all of eight; rabbit endocardial APD90 ([5]; female, rabbit, 0.003 μM): 443 ± 27 ms
CNCCC(Oc1ccc(C(F)(F)F)cc1)c1ccccc1 (stereo not shown) [fluxetine] |  |  | maximal TdP score in the testing concentration range ([3]; Table 1 criteria, means ±SEM, text and FIG. 7 legend): 0.00±0.00; Maximal TdP Score ([3]; Table 2, Table 1 criteria, means ±SEM): 0.0 ± 0.0

— US7396524B2, “Methods for screening compounds for proarrhythmic risk and antiarrhythmic efficacy” (Main Line Health Heart Center, priority 2005, dated 2008)
